According to patent publication US8637549B2, “Pyridons as PDK1 inhibitors” (Boehringer Ingelheim International GmbH, priority 2008, dated 2014):
Marks after values point to notes of the source that are not given here.

Tests used:
[1] = molecular target: T1, ΔPH-PDK1 (shortened PDK1 enzyme aa 51-359; Q66A mutation) (Homo sapiens, UniProt O15530, Q66A); assay: PDK1 kinase assay II; format: biochemical; details: 10 μM compound, residual enzyme activity relative to DMSO control, values marked with asterisk (*)
T1 construct: a shortened PDK1 enzyme (aa 51-359; Q66A mutation) is used; His6 (N, cleaved yes); made in house
T1 sequence (O15530 51-359 Q66A): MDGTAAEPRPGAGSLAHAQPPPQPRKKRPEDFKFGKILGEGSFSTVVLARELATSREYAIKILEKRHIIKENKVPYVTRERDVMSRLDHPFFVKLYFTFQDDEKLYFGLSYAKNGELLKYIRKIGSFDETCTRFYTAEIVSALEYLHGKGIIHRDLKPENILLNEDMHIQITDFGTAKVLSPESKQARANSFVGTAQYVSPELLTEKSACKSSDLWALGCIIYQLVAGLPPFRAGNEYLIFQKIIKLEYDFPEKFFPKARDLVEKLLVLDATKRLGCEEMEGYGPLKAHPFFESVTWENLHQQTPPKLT
Experimental: Another assay was developed in which a shortened PDK1 enzyme (aa 51-359; Q66A mutation) is used that carries in the N-terminal position a His6 tag that is cleaved during purification. (ΔPH-PDK1). […]
The reaction is started by adding the ATP solution and the mixture is incubated for 120 min at ambient temperature; at the start of the reaction the dishes are shaken gently. […] Then the plate is stuck down with sealing tape, 25 μL/well of scintillation solution (Microscint 0; Messrs. Perkin Elmer; No. 6013611) are added and the amount of P33 precipitated is measured using the Wallac Betacounter. The measured data are evaluated using Graphpad Prism software.
(§1) The % CTL values indicate the residual activity of the enzyme after the addition of the inhibitory compound in the solvent DMSO in relation to the enzyme activity in the solvent DMSO without the addition of a compound (control). The majority of the values were determined using the PDK1 kinase assay III described hereinbefore. The values marked with an asterisk (*) were determined using the PDK1 kinase assay II described hereinbefore.

[2] = molecular target: T2, His6-PDK1 (aa 52-556) (Homo sapiens, UniProt O15530); assay: PDK1 kinase assay III (with Tween 20); format: biochemical; details: 10 μM compound, residual enzyme activity relative to DMSO control, unmarked values, read-out: % CTL
T2 construct: 15 μL His6-PDK1 (aa 52-556) 3.33 ng/well) and PDKtide; host or cells: baculovirus-infected insect cells
T2 sequence (O15530 52-556): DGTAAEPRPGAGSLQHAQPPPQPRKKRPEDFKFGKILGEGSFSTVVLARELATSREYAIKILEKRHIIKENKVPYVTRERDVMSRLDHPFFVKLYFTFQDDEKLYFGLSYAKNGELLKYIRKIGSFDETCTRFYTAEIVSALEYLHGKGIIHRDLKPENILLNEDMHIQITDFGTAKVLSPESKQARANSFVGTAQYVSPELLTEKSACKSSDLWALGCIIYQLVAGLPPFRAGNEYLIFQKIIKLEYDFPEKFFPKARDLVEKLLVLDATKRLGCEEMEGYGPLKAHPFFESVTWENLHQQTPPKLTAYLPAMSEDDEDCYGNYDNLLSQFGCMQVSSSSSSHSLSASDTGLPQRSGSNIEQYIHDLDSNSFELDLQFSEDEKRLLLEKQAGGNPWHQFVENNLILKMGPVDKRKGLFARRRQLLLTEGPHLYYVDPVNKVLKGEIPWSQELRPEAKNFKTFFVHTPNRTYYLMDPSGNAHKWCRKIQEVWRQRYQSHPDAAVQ
Experimental: Another PDK1 assay was developed which by comparison with PDK1 assay 1 additionally contains Tween 20:
The following components are combined in a well of a 96-well round-based dish (Messrs. Greiner bio-one, No. 650101): • 15 μL of compound to be tested in varying concentrations (e.g. Starting at 10 μM, and diluted in steps of 1:5) in APT buffer (50 mM tris/C1 pH7.5; 0.05% β-mercaptoethanol; 10 mM Mg-acetate; 0.0166% Tween 20; 3.33% DMSO) • 15 μL His6-PDK1 (aa 52-556) 3.33 ng/well) and PDKtide (KTFCGTPEYLAPEVRRE […]), synthesised by Pepceuticals Limited, Nottingham, United Kingdom; 25 μM final concentration); His6-PDK1 and PDKtide are together diluted accordingly in assay buffer (50 mM tris pH 7.5, 0.05% β-mercaptoethanol, 10 mM Mg-acetate); PDKtide is present in this mixture as an 83.3 μM solution. These 30 μL are routinely incubated for 30 min at RT. • 20 μL ATP solution (25 μM ATP with 1.0 μCi/well gamma-P33-ATP). The final concentration of Tween 20 is 0.005%.
The reaction is started by adding the ATP solution and the mixture is incubated for 90 min at ambient temperature; at the start of the reaction the dishes are shaken gently. The reaction is stopped by the addition of 50 μL/well of 500 mM phosphoric acid (H3PO4) and incubated for about 20 min at ambient temperature. The precipitate is transferred by harvesting onto filter plates (96-well microtitre filter plate: UniFilter GF/C; Messrs Perkin Elmer; No. 6005174), then washed 6 times with 50 mM H3PO4 and dried at 60° C. Then the plate is stuck down with sealing tape, 25 μL/well of scintillation solution (Microscint 0; Messrs. Perkin Elmer; No. 6013611) are added and the amount of P33 precipitated is measured using the Wallac Betacounter. The measured data are evaluated using Graphpad Prism software.
as §1

Row | % CTL [1] | Compound | remaining activity at 10 µM [2] [%]
1 | 47.0* % | CN1CCC(N(C)c2ccc(Nc3ncc4cc(C#CCNC(=O)c5cccn(Cc6ccc(C(F)(F)F)nc6)c5=O)ccc4n3)cc2)CC1 [II-8, N-{3-[2-({4-[methyl(1-methylpiperidin-4-yl)amino]phenyl}amino)quinazolin-6-yl]prop-2-yn-1-yl}-2-oxo-1-{[6-(trifluoromethyl)pyridin-3-yl]methyl}-1,2-dihydropyridine-3-carboxamide] | 
2 | 15.6* % | CN(C)Cc1ccc(Nc2ncc3cc(C#CCNC(=O)c4cccn(Cc5cccnc5)c4=O)ccc3n2)cc1 [II-5, N-{3-[2-({4-[(dimethylamino)methyl]phenyl}amino)quinazolin-6-yl]prop-2-yn-1-yl}-2-oxo-1-(pyridin-3-ylmethyl)-1,2-dihydropyridine-3-carboxamide] | 
3 |  | CN(C)Cc1ccc(Nc2ncc3cc(C#CCNC(=O)c4cccn(Cc5ccc(C(F)(F)F)nc5)c4=O)ccc3n2)cc1 [II-6, N-{3-[2-({4-[(dimethylamino)methyl]phenyl}amino)quinazolin-6-yl]prop-2-yn-1-yl}-2-oxo-1-{[6-(trifluoromethyl)pyridin-3-yl]methyl}-1,2-dihydropyridine-3-carboxamide] | 16
4 |  | O=C1Nc2cc(/C=C/CNC(=O)c3cccn(Cc4ccccn4)c3=O)ccc2/C1=C/c1ccc[nH]1 [I-6, 2-oxo-N-{(2E)-3-[(3Z)-2-oxo-3-(1H-pyrrol-2-ylmethylidene)-2,3-dihydro-1H-indol-6-yl]prop-2-en-1-yl}-1-(pyridin-2-ylmethyl)-1,2-dihydropyridine-3-carboxamide] | 20.1
